Data published in patent US9163018B2, “Method of treatment of age-related macular degeneration (AMD)” (Prana Biotechnology Limited, priority 2006, dated 2015).

How the values were obtained:
Aβ 1-42 = molecular target: T1, Aβ 1-42 (Homo sapiens, UniProt P05067); assay: Fluorometric H2O2 assay (inhibition of Abeta H2O2 production); type: biochemical; conditions: concentration required to inhibit 50% of Abeta H2O2 production; read-out: H2O2 IC50
T1 construct: The reaction solutions contained Aβ 1-42 at concentrations
T1 sequence (P05067 672-713 limits assumed): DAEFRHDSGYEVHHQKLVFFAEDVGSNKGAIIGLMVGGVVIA
Method in brief: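 Copper-dependent Aβ H2O2 production measured fluorometrically with deacetylated dichlorofluorescein plus HRP in PBS, pH 7.4. Incubation 60 min at 37 C, test compound included in wells. H2O2 quantified against H2O2 standards.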

[1] = system: primary cortical neuronal cultured cells; assay: Test compound cytotoxicity, MTS assay, primary cortical neuronal cultures; type: cell-based, mouse
Method in brief: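 Primary cortical neurons were cultured five days in Neurobasal/B27, then exposed on day six to compounds (from 2.5 mM DMSO stocks) in medium minus antioxidants, in triplicate for 4 days at 37° C. Viability was measured by MTS, 2 h at 37° C, absorbance at 560 nm.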

[2] = molecular target: T2, Abeta:Zn (25:50 μM) Synthetic Aggregations (Homo sapiens, UniProt P05067); assay: Disaggregation of Abeta:Zn synthetic aggregates (ThT fluorescence); type: biochemical
T2 construct: PB Compound Mediated Dissolution of Aggregated Abeta 1-42; purchased Keck Laboratory, Yale University School of Medicine
T2 sequence (P05067 672-713 limits assumed): as above
Method in brief: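 Abeta1-42 (25 μM) with ZnCl2 (50 μM) and ThT (50 μM) in PBS pH 6.6 was preaggregated 24 h at 37 degrees with rotation. Aggregates were then exposed to compound (final 1-50 μM, DMSO) for 2 h at 37 degrees. ThT fluorescence was read at ex 450/em 480 nm.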

[3] = Mice plasma concentration after oral dose; type: in vivo; conditions: 30 min to 4 h after single or repeat oral dose of 30 mg/kg
[4] = Toxicity, visual observations in mice; conditions: 30 mg/kg; duration and visual observations
[5] = system: metal ions in retinal drusen; assay: Post mortem retina screening, ZP1 zinc labeling of Bruch membrane; conditions: 15 hours incubation; TPEN 100 μM, PB-1033 100 and 250 μM; 10 μM ZP1
Procedure: Post Mortem Screening The BAS assay is adopted for post mortem retina. Using a trephine, 6 mm diameter regions of peripheral retina from frozen donor eyes are dissected. Following defrosting, the neuronal retina and the RPE cells are removed by gentle agitation in PBS buffer. Following removal of the RPE cells, strips of the Bruch membrane are cut from the eye. 4 samples are prepared: 1) Control […] Samples are then washed 3 times and the labeling visualized using a fluorescence and confocal microscope. A repeat of this procedure is performed with the exception that samples are incubated for a period of 15 hours before washing to determine differential metal binding over this longer period. The test results are in the form of fluorescence imaging from a confocal microscope of the 4 samples tested in this Example after 15 hours of sample incubation. […] Fluorescence microscopic photographs (which are in colour) are available upon request from the […].

Aβ deposits = conditions: daily oral gavage 30 mg/kg, 9 weeks, 13-14 months old transgenic mice
[6] = system: M17 human neuroblastoma cells; assay: Cytotoxicity, M17 human neuroblastoma cells; type: cell-based
Procedure: Assay 3. MTS Assay for Cell Viability
Cell viability is determined using the MTS assay. Culture medium is replaced with fresh neurobasal medium plus B27 supplements minus antioxidants. 1/10th volume MTS solution (Cell Titre 96 Aqueous One, Promega Corporation) and incubated at 37° C., 2 hrs. 200 microliter aliquots are measured with a spectrophotometer at 560 nm.

For CN(C)Cc1ccc2c(Cl)cc(Cl)c(O)c2n1.Cl [PB 1033], the IC50 (Aβ 1-42) was 0.35 µM, the “Cytotox (% viable) Neuronal cells at 1 μM” value ([1]; 1 μM test compound) was 84% and the “Cytotox (% viable) Neuronal cells at 10 μM” value ([1]; 10 μM test compound) was 72%. For the same compound, the “Disaggregation % Aggregate reduction at 5 μM” value ([2]; 5 μM test compound) was 33.2%, the EC50 ([2]; Abeta:Zn 25:50 μM aggregates) was 18.6 µM and the Mice plasma concentration [3] was “Up to 500 ng/ml ng/mL”. For the same compound, the “Toxicity at 30 mg/kg” value [4] was 10 days, none, the “ZP1 (zinc sensor) labeling of post mortem Bruch membrane” value [5] was “inhibited ZP1 labeling” and the “Tg Mice % difference from control in Amyloid plaque abundance” value (Aβ deposits) was −42%. The “Tg Mice % difference from control in insoluble brain amyloid burden” value (Aβ deposits) was −29%, the “Tg Mice % difference from control in soluble brain amyloid burden” value (Aβ deposits) was −37% and the “Cytotox (% viable) M17 cells at 1 μM” value ([6]; 1 μM test compound) was 94%. The “Cytotox (% viable) M17 cells at 10 μM” value ([6]; 10 μM test compound) was 54.3%.
